Values quoted from earlier work, collected in patent US20140348811A1, “COMPOSITIONS COMPRISING SUGAR-CYSTEINE PRODUCTS” (MAX INTERNATIONAL, LLC, priority 2011, published 2014).

Key:
glutathione levels = settings: mice, 8 mmol/kg i.p.
[1] = tested on: acetaminophen hepatic and renal toxicity; settings: mice, 2 g/kg
[2] = tested on: mice exposed to cyclophosphamide; settings: 8 mmol/kg
[3] = tested on: irradiation-induced bowel injury; settings: mice, 1 g/kg
[4] = administered directly to humans, wide dosage ranges
ATP levels = settings: dogs subjected to ischemia, about 3 g/day for at least 5 days
[5] = healthy humans, orally 8-10 g per day

SMILES | increased glutathione levels, heart (glutathione levels; heart) | increased glutathione levels, muscle tissue (glutathione levels; muscle tissue) | protection against acetaminophen hepatic and renal toxicity [1] | delivery of protective amounts of cysteine [2] | protection against irradiation-induced bowel injury [3] | toxicity [4] | ATP levels (ATP levels) | exercise capacity [5]
O=C(O)[C@@H]1CSC(C(O)C(O)C(O)CO)N1 (stereo partly drawn) [RibCys, 2(R,S)-D-ribo-(1′,2′,3′,4′-tetrahydroxybutyl)thiazolidine-4(R)-carboxylic acid] | 1.5 times | 2.5 times | protect mice against acetaminophen hepatic and renal toxicity | deliver effective protective amounts of cysteine | protect mice against irradiation-induced bowel injury | – | – | –
O=C[C@H](O)[C@H](O)[C@H](O)CO [ribose] | – | – | – | – | – | essentially non-toxic | effectively restored and maintained ATP levels | increase exercise capacity
